Measurements: PubChem BioAssay (NCI)
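How tested: cells in 96-well plates exposed to compound for 48 hours at five concentrations. TGI marks complete inhibition of growth.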

Key:
Assay in all cases: NCI tumour cell line growth inhibition, 48 h
KM20L2 colon = system: KM20L2 colon
DMS 273 small cell lung = system: DMS 273 small cell lung
P388/ADR leukemia = system: P388/ADR leukemia
P388 leukemia = system: P388 leukemia
SN12K1 renal = system: SN12K1 renal
DMS 114 small cell lung = system: DMS 114 small cell lung
HOP-18 NSCLC = system: HOP-18 NSCLC
XF 498 CNS = system: XF 498 CNS
RXF-631 renal = system: RXF-631 renal
LXFL 529 NSCLC = system: LXFL 529 NSCLC

Compound | TGI (KM20L2 colon) [µM] | TGI (DMS 273 small cell lung) [µM] | TGI (P388/ADR leukemia) [µM] | TGI (P388 leukemia) [µM] | TGI (SN12K1 renal) [µM] | TGI (DMS 114 small cell lung) [µM] | TGI (HOP-18 NSCLC) [µM] | TGI (XF 498 CNS) [µM] | TGI (RXF-631 renal) [µM] | TGI (LXFL 529 NSCLC) [µM]
C=CCC(O[Si](C)(C)C(C)(C)C)c1cc(O[Si](C)(C)C(C)(C)C)ccc1OC (configuration not stated) | > 100 | > 100 | > 100 | > 100 | > 100 | > 100 | > 100 | > 100 | – | –
CC1=C(CO)C(=O)OC(C(C)C2CCC3C4CC5OC56C(O)C(N5CC5)=CC(=O)C6(C)C4CCC23C)C1 (configuration not stated) | 9.87 | 17.9 | – | – | – | 5.85 | – | 16.4 | 34.5 | 15.9
C[s+]1c2ccccc2c2ccccc21 | > 100 | > 100 | – | – | – | – | – | > 100 | – | > 100
CCOc1ccc2nc(NC(=O)C(=O)C(C(=O)c3ccccc3F)C3OC(=O)c4ccccc43)sc2c1 (configuration not stated) | 71 | 51.4 | – | – | – | – | – | 46.2 | 70.1 | 77.8
Clc1ccc2c(NCCCCCCNc3ccnc4cc(Cl)ccc34)ccnc2c1 | 4.39 | 11.7 | – | – | – | 3.34 | – | 2.96 | 6.02 | 7.3
CC(C)CCCC(C)[C@H]1CCC(C2C[C@@H](O)[C@@H]3CC(O)[C@@H](O)C[C@]3(CO)C2=O)[C@]1(C)CCO (some centres not stated) | 38.5 | > 68.5 | > 88.7 | 49.5 | 37.4 | 39.7 | 47.7 | > 59.6 | – | –
N#Cc1ccccc1NC(=O)C(=O)C(C(=O)c1ccccc1F)C1OC(=O)c2ccccc21 (configuration not stated) | > 100 | > 100 | – | – | – | > 100 | – | > 100 | – | > 100
